What all share (assay type): cell-based
The test system of one assay is HCC827 cells. Nature of the assay: Cell growth inhibition (CellTiter-Glo), HCC827. The following applies: Homo sapiens, 72 h, 3 days. A digest of the protocol:
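HCC827 cells in RPMI and A431 cells in DMEM (both 10% FBS) were seeded at 5000 cells/well and left overnight. They were then exposed to compound dilutions for 3 days at 37° C. Viability was read by CellTiter-Glo luminescence.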
(In general: ATP-based viability assays read luminescence as a measure of living cells.)

Assay [1] has as its system HCC827-SVD cells (human EGFR exon 20 insertion mutant D770_N771insSVD). Put plainly: Cell growth inhibition (CellTiter-Glo), HCC827-SVD. The note with it: 72 h, 3 days. A digest of the protocol: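 HCC827 cells with endogenous EGFR knocked out and lentivirally expressing the insertion mutant (single clone) were seeded at 5000 cells/well in RPMI with 10% FBS. After overnight, compounds added; 3 days at 37 °C, then CellTiter-Glo luminescence.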

The test system of assay [2] is HCC827-YVMA cells (human ERBB2 exon20 insertion mutant A775_G776ins YVMA). Nature of the assay: Cell growth inhibition (CellTiter-Glo), HCC827-YVMA. The note with it: 72 h, HCC827-YVMA cells, 3 days, CellTiter-Glo, read-out: Cell growth inhibition, GI50 (nM) HCC827-YVMA. Summed up: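 HCC827 cells transduced with lentiviral codon-optimized mutant (ERBB2 A775_G776insYVMA or EGFR V769_D770insASV), endogenous EGFR knocked out by CRISPR, single clone selected. Cells seeded overnight in RPMI/10% FBS, then exposed to serially diluted compounds at 37 °C for 3 days; viability read by CellTiter-Glo luminescence.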

A further assay relates to A431 cells. Nature of the assay: Cell growth inhibition (CellTiter-Glo), A431. The following applies: Homo sapiens, A-431, 72 h, 3 days. The method, then: 2. Cell Growth Inhibition for HCC827, HCC827-SVD, HCC827-ASV, HCC827-YVMA, and A431.
HCC827(ATCC), HCC827-SVD, HCC827-ASV, and HCC827-YVMA cells were seeded in 96-well plates at 5000 cells/well in 90 μL of RPMI growth medium containing 10% FBS and 1% Penicillin Streptomycin. A431 (ATCC) cells were seeded in 96-well plates at 5000 cells/well in 90 μL of DMEM growth medium containing 10% FBS and 1% Penicillin Streptomycin. Cells were incubated at 37° C. overnight and then administered with 10 μL 10× test compounds prepared in the growth medium at various concentrations. After administration of the compounds, cells were incubated at 37° C. for 3 days. Before the CellTiter-Glo assay, the plates were equilibrated at room temperature for approximately 30 minutes. 100 ul of CellTiter-Glo reagent (Promega) was added to each well. The plates were then incubated at room temperature for 10 minutes and luminescence was recorded by the EnSight® multimode plate reader (PerkinElmer). Table 7 listed selected compounds in cellular growth assay.

These results are taken from US20240059698A1 (Accutar Biotechnology Inc., priority 2022, published 2024).

With `C=CC(=O)N1CCC(c2n[nH]c3ncnc(Nc4ccc(Oc5nc(-c6ccc(C(F)(F)F)nc6)cs5)cc4F)c23)CC1` [Compound 188, 1-(4-(4-((2-fluoro-4-((4-(6-(trifluoromethyl)pyridin-3-yl)thiazol-2-yl)oxy)phenyl)amino)-1H-pyrazolo[3,4-d]pyrimidin-3-yl)piperidin-1-yl)prop-2-en-1-one], the concentration for 50% growth inhibition (GI50) was 200 to 1000 nM in the assay on HCC827 cells, 50 to 200 nM in assay [1], 50 to 200 nM in assay [2] and greater than 1000 nM in the assay with A431 cells.

On to `C=CC(=O)N1CCC(c2c[nH]c3ncnc(Nc4ccc(Oc5ccc(-c6cc(C)[nH]c(=O)c6)cc5)c(Cl)c4F)c23)CC1` [Compound 138, 4-(4-(4-((5-(1-acryloylpiperidin-4-yl)-7H-pyrrolo[2,3-d]pyrimidin-4-yl)amino)-2-chloro-3-fluorophenoxy)phenyl)-6-methylpyridin-2(1H)-one], for which the GI50 with HCC827 cells was greater than 1000 nM; in assay [1] it was 50 to 200 nM; in assay [2], 200 to 1000 nM; in the assay with A431 cells, greater than 1000 nM.

For `C=CC(=O)N1CCC(c2c[nH]c3ncnc(Nc4ccc(Oc5ccnc(N6CC7C(C6)C7(F)F)c5)cc4F)c23)CC1` (stereo not shown) [Compound 148, 1-(4-(4-((4-((2-(6,6-difluoro-3-azabicyclo[3.1.0]hexan-3-yl)pyridin-4-yl)oxy)-2-fluorophenyl)amino)-7H-pyrrolo[2,3-d]pyrimidin-5-yl)piperidin-1-yl)prop-2-en-1-one], the GI50 was greater than 1000 nM in the assay with HCC827 cells, 50 to 200 nM in assay [1], 200 to 1000 nM in assay [2] and greater than 1000 nM in the assay with A431 cells.

Turning to `C=CC(=O)N1CCC(c2ccn3ncnc(Nc4ccc(Oc5nc(-c6cnc(C)c(F)c6)cs5)cc4F)c23)CC1` [Compound 206, 1-[4-[4-[2-fluoro-4-[4-(5-fluoro-6-methyl-3-pyridyl)thiazol-2-yl]oxy-anilino]pyrrolo[2,1-f][1,2,4]triazin-5-yl]-1-piperidyl]prop-2-en-1-one], the concentration for 50% growth inhibition (GI50) with HCC827 cells was greater than 1000 nM; in assay [1] it was 200 to 1000 nM; in assay [2], 50 to 200 nM; in the assay with A431 cells, greater than 1000 nM.

Regarding `C=CC(=O)N1CCC(c2n[nH]c3ncnc(Nc4ccc(Oc5ccnc(N6C[C@H](OC)[C@H](OC)C6)c5)cc4F)c23)CC1` [Compound 176, 1-(4-(4-((4-((2-((3S,4R)-3,4-dimethoxypyrrolidin-1-yl)pyridin-4-yl)oxy)-2-fluorophenyl)amino)-1H-pyrazolo[3,4-d]pyrimidin-3-yl)piperidin-1-yl)prop-2-en-1-one], the GI50 was greater than 1000 nM in the assay with HCC827 cells, 200 to 1000 nM in assay [1], 200 to 1000 nM in assay [2] and greater than 1000 nM in the assay with A431 cells.

In the case of `C=CC(=O)N1CCC(c2n[nH]c3ncnc(Nc4ccc(O[C@H]5CCCN(S(=O)(=O)c6ccc(OC)nc6)C5)cc4F)c23)CC1` [Compound 187, (S)-1-(4-(4-((2-fluoro-4-((1-((6-methoxypyridin-3-yl)sulfonyl)piperidin-3-yl)oxy)phenyl)amino)-1H-pyrazolo[3,4-d]pyrimidin-3-yl)piperidin-1-yl)prop-2-en-1-one], the GI50 was 200 to 1000 nM with HCC827 cells, 200 to 1000 nM in assay [1], 200 to 1000 nM in assay [2] and greater than 1000 nM in the assay on A431 cells.

For the compound `C=CC(=O)N1CCC(c2c[nH]c3ncnc(Nc4ccc(Oc5ccn(-c6cnc(C)c(F)c6)n5)cc4F)c23)CC1` [Compound 150, 1-(4-(4-((2-fluoro-4-((1-(5-fluoro-6-methylpyridin-3-yl)-1H-pyrazol-3-yl)oxy)phenyl)amino)-7H-pyrrolo[2,3-d]pyrimidin-5-yl)piperidin-1-yl)prop-2-en-1-one], the GI50 in the assay with HCC827 cells was 200 to 1000 nM; in assay [1], 50 to 200 nM; in assay [2], 50 to 200 nM; in the assay with A431 cells it was greater than 1000 nM.

One may read the GI50 as the concentration that inhibits growth by half.
